From ChEMBL document CHEMBL4706599, “Discovery of novel quinazoline derivatives as potent PI3Kδ inhibitors with high selectivity” (Eur J Med Chem, 2020)

Assays:
[1] = target: T1, Phosphatidylinositol 4,5-bisphosphate 3-kinase catalytic subunit delta isoform (Homo sapiens) (UniProt O00329); assay: Inhibition of PI3Kdelta (unknown origin) at 200 nM by ADP-Glo kinase assay relative to control
T1 sequence (whole entry): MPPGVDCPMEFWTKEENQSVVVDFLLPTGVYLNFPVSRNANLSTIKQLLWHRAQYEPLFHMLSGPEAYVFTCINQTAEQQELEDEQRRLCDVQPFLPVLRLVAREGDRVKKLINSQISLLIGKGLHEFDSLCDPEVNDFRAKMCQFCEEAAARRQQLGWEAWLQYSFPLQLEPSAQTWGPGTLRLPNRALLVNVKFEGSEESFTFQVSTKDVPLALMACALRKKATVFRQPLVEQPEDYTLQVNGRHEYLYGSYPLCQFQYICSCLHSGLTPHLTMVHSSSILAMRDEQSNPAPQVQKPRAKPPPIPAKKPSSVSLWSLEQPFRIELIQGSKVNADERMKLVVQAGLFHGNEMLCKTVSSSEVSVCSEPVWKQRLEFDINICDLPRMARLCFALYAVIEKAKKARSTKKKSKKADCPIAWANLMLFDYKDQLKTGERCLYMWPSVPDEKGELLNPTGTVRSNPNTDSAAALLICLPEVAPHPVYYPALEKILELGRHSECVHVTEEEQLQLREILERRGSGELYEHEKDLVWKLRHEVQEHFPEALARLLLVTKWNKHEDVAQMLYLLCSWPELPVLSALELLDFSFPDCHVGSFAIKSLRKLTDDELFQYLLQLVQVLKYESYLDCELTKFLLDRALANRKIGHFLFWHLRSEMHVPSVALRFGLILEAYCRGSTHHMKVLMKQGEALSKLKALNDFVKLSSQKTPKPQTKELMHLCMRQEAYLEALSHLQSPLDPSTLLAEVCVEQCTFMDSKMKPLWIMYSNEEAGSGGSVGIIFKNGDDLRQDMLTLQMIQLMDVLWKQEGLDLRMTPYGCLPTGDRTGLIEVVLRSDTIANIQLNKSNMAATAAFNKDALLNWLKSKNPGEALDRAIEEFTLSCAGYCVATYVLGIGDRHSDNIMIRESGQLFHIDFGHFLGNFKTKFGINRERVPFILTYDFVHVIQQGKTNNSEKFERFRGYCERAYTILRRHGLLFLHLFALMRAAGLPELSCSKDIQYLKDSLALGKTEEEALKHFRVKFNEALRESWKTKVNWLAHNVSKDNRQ

Ramos = assay: Antiproliferative activity against human Ramos cells assessed as inhibition of cell growth after 48 hrs by MTT assay; assay type: functional, cell-based
[2] = target: T2, Phosphatidylinositol 4,5-bisphosphate 3-kinase catalytic subunit delta isoform (Homo sapiens, UniProt O00329); assay: Inhibition of PI3Kdelta (unknown origin) by ADP-Glo kinase assay
T2 sequence (O00329 whole entry): T1 sequence (whole entry)

Raji [3] = assay: Antiproliferative activity against human Raji cells assessed as inhibition of cell growth after 48 hrs by MTT assay; assay type: functional, cell-based
Raji [4] = assay: Induction of apoptosis in human Raji cells assessed as late apoptotic cells at 5 uM measured after 24 hrs by Annexin V-FITC/PI staining based flow cytometry (reference value: 2.11 %); assay type: functional
Raji [5] = assay: Antiproliferative activity against human Raji cells assessed as reduction in cell viability at 10 uM by MTT assay; assay type: functional, cell-based; settings: TDE = time-dependent effect
Homo sapiens [6] = organism: Homo sapiens; assay: Selectivity index, ratio of IC50 for PI3Kbeta (unknown origin) to IC50 for PI3Kdelta (unknown origin)
Raji [7] = assay: Inhibition of PI3K/Akt signalling pathway in human Raji cells assessed as reduction in Akt phosphorylation at Ser473 residue after 24 hrs by Western blot analysis; assay type: cell-based; settings: dose 1-1000 nM
[8] = Metabolic stability in rat liver microsomes assessed as compound remaining at 1 uM measured up to 45 mins in presence of NADPH by LC/MS analysis; assay type: ADME, Microsome; settings: 0.75 h
[9] = target: Phosphatidylinositol 4,5-bisphosphate 3-kinase catalytic subunit alpha isoform (Homo sapiens, UniProt P42336); assay: Inhibition of PI3Kalpha (unknown origin)
Chain of Phosphatidylinositol 4,5-bisphosphate 3-kinase catalytic subunit alpha isoform (P42336 whole entry, canonical isoform): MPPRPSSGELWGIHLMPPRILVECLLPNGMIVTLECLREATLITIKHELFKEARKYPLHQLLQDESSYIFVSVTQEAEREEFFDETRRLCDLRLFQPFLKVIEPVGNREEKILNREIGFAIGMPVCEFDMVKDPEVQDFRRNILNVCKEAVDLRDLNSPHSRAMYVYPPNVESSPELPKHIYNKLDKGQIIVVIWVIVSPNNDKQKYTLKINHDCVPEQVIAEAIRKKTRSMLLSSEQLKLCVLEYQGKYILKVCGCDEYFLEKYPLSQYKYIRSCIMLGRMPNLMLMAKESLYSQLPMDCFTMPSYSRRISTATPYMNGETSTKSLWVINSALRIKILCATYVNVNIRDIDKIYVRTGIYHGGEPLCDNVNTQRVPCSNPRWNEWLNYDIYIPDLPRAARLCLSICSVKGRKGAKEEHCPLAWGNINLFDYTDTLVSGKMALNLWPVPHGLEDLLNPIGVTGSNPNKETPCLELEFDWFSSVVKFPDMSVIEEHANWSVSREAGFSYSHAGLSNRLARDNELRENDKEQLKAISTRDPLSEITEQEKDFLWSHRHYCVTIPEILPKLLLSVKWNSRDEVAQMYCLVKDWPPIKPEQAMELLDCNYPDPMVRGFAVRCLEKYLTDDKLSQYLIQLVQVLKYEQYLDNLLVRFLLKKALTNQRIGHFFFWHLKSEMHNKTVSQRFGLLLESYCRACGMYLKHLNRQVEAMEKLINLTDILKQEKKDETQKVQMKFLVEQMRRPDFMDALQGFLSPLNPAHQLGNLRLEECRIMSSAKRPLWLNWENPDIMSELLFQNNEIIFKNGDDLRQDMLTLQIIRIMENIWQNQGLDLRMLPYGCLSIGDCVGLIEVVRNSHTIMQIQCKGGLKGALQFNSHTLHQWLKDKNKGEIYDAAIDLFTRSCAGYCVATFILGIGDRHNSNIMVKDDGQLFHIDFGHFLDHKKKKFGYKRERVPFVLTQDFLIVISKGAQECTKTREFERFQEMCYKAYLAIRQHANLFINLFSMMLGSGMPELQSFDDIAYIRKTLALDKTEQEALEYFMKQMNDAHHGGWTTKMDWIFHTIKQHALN

[10] = Metabolic stability in human liver microsomes assessed as compound remaining at 1 uM measured up to 45 mins in presence of NADPH by LC/MS analysis; assay type: ADME, Microsome; settings: 0.75 h
[11] = target: Phosphatidylinositol 4,5-bisphosphate 3-kinase catalytic subunit gamma isoform (Homo sapiens, UniProt P48736); assay: Inhibition of PI3Kgamma (unknown origin)
Chain of Phosphatidylinositol 4,5-bisphosphate 3-kinase catalytic subunit gamma isoform (P48736 whole entry, canonical isoform): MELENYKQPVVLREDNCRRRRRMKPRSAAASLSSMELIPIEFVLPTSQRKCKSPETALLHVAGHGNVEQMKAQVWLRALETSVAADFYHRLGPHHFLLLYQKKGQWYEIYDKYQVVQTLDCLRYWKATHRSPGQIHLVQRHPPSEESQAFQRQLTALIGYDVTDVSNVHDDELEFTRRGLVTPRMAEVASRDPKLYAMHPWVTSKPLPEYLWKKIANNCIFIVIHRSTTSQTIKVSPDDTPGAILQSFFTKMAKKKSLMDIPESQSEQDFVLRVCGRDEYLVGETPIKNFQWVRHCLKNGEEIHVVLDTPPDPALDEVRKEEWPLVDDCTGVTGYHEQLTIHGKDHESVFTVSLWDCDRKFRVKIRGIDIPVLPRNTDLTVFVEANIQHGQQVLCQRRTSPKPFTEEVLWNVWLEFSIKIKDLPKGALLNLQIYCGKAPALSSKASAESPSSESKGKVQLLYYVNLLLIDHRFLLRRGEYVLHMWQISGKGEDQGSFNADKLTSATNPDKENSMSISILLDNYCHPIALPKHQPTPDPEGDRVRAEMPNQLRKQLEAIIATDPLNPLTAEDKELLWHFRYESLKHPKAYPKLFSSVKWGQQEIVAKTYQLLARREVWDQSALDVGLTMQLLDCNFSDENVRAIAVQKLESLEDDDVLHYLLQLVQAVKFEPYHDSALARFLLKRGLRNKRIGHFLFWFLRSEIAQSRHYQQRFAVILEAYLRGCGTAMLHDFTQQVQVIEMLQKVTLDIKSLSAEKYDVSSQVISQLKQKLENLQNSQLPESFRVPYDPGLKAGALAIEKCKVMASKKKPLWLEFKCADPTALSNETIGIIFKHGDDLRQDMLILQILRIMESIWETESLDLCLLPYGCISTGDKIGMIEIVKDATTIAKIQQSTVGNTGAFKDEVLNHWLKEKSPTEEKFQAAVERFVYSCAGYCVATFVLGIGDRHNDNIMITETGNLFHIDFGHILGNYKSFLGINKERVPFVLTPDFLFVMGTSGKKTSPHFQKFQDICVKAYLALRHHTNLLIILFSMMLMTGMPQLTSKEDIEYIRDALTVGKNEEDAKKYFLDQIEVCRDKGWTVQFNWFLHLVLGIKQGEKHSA

Homo sapiens [12] = organism: Homo sapiens; assay: Selectivity index, ratio of IC50 for PI3Kgamma (unknown origin) to IC50 for PI3Kdelta (unknown origin)
Homo sapiens [13] = organism: Homo sapiens; assay: Selectivity index, ratio of IC50 for PI3Kalpha (unknown origin) to IC50 for PI3Kdelta (unknown origin)
Raji [14] = assay: Antiproliferative activity against human Raji cells assessed as reduction in cell viability after 24 hrs by MTT assay; assay type: functional, cell-based; settings: dose 0.2-15 µM
Raji [15] = assay: Antiproliferative activity against human Raji cells assessed as reduction in cell viability at 10 uM after 24 hrs by MTT assay; assay type: functional
[16] = target: Phosphatidylinositol 4,5-bisphosphate 3-kinase catalytic subunit beta isoform (Homo sapiens, UniProt P42338); assay: Inhibition of PI3Kbeta (unknown origin)
Chain of Phosphatidylinositol 4,5-bisphosphate 3-kinase catalytic subunit beta isoform (P42338 whole entry, canonical isoform): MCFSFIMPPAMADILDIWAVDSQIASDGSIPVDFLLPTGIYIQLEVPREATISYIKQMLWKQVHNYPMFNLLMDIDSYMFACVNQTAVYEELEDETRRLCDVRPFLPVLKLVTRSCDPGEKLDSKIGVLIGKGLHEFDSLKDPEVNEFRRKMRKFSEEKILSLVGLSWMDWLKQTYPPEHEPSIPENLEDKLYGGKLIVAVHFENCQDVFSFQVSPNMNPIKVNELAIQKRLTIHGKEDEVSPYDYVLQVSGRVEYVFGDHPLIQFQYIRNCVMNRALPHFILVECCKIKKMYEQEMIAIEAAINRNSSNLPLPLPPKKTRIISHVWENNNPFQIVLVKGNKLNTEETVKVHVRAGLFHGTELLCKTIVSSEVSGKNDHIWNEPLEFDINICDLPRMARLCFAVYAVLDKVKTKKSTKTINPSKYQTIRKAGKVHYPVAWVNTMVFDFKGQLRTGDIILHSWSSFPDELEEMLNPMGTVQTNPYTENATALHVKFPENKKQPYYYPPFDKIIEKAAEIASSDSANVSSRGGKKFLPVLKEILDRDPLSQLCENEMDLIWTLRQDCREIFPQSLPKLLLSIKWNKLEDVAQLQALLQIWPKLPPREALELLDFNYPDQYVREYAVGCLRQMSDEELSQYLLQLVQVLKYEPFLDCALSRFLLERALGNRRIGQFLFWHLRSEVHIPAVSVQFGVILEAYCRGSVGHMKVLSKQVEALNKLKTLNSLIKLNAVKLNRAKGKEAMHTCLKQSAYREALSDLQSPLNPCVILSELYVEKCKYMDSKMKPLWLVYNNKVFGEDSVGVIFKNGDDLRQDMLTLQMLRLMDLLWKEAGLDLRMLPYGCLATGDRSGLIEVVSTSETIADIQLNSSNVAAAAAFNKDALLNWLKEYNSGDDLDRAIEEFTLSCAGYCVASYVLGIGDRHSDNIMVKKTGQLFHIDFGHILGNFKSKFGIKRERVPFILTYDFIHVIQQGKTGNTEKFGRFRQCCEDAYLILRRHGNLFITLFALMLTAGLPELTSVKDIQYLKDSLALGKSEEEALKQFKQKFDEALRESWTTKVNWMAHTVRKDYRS

Structure (SMILES) | inhibition [1] [%] | IC50 (Ramos) [µM] | IC50 [2] [µM] | IC50 (Raji [3]) [µM] | other results
C=CC(=O)Nc1cccc(Oc2ncnc3ccc(-c4ccc(Cl)nc4)cc23)c1 | 33.1 | 10.1 | – | – | –
CCC(=O)Nc1cccc(Nc2ncnc3ccc(-c4cnc5ccccc5c4)cc23)c1 | – | – | 0.021 | – | –
C=CC(=O)Nc1cccc(Oc2ncnc3ccc(-c4cccnc4)cc23)c1 | 41.8 | 9.4 | – | 14.8 | –
CC#CC(=O)Nc1cccc(Nc2ncnc3ccc(-c4cnc5ccccc5c4)cc23)c1 | – | > 50 | 0.41 | – | –
C=CC(=O)Nc1cccc(Oc2ncnc3ccc(-c4ccc(F)nc4)cc23)c1 | 23.4 | 11 | – | 11 | –
C=CC(=O)Nc1cccc(Oc2ncnc3ccc(-c4cnc5ccccc5c4)cc23)c1 | 29.5 | 10.6 | – | 8.6 | –
C=CC(=O)Nc1cccc(Nc2ncnc3ccc(-c4ccc(F)nc4)cc23)c1 | 46.6 | – | – | > 50 | –
C=CC(=O)Nc1cccc(Nc2ncnc3ccc(-c4ccc(Cl)nc4)cc23)c1 | 64.6 | – | 0.104 | 11.6 | –
Cn1c(=O)n(-c2ccc(C(C)(C)C#N)cc2)c2c3cc(-c4cnc5ccccc5c4)ccc3ncc21 [DACTOLISIB] | 66.3 | 0.6 | – | 0.3 | Activity (Raji [4]): 10.24%

Now from value to compound, other results behind:

inhibition [1] [%] | IC50 (Ramos) [µM] | IC50 [2] [µM] | IC50 (Raji [3]) [µM] | Structure (SMILES) | other results
– | 17 | 0.495 | 0.9 | C=CC(=O)N1CCc2ccc(Nc3ncnc4ccc(-c5cnc6ccccc6c5)cc34)cc21 | –
– | 5 | 0.129 | 2.7 | C/C=C/C(=O)Nc1cccc(Nc2ncnc3ccc(-c4cnc5ccccc5c4)cc23)c1 | –
– | > 50 | 0.117 | 3.5 | C=CC(=O)Nc1cccc(Nc2ncnc3ccc(-c4cnc5ccccc5c4)cc23)c1 | –
– | 5.4 | 0.0275 | 8.5 | C=CC(=O)Nc1cc(Nc2ncnc3ccc(-c4cnc5ccccc5c4)cc23)ccc1C | Activity (Raji [5]): Tde; Ratio IC50 (Homo sapiens [6]): 300; inhibition (Raji [7]): Dose-dependent effect; Stabilty [8]: Unstable; IC50 [9]: 0.561 µM; Activity (Raji [4]): 10.78%; Stabilty [10]: Unstable; IC50 [11]: 1.25 µM; Ratio IC50 (Homo sapiens [12]): 45; Ratio IC50 (Homo sapiens [13]): 20; Activity (Raji [14]): Dose-dependent effect; Activity (Raji [15]): >50%; IC50 [16]: 19.6 µM
